Results published in patent US20260070899A1, “N-(2-(4-CYANOTHIAZOLIDIN-3-YL)-2-OXOETHYL)-QUINOLINE-4-CARBOXAMIDES” (AstraZeneca AB, priority 2022, published 2026).
pIC50: −log10 of the molar value.

What was measured:
[1] = target: T1, human dipeptidylpeptidase 7 (hDPP7) (Homo sapiens, UniProt Q9UHL4); assay: hDPP7 inhibition assay; type: biochemical; details: hDPP7 15 nM, Ala-Pro-amino-methylcoumarin 5 μM; n = 1
T1 construct: purchased BPS Bioscience 80070
Procedure: Compounds were tested in a biochemical inhibition assay using human dipeptidylpeptidase 7 (hDPP7) enzyme at 15 nM FAC (BPS Bioscience, #80070) and the substrate Ala-Pro-amino-methylcoumarin (BPS Bioscience, #80305) at 5 μM FAC. The enzymatic reactions were conducted in duplicate at rt for 30 min in 50 μL DPP assay buffer (BPS Bioscience, #80300). Compound solutions (in DMSO) at 10 CR, 3 fold dilution series were prepared in assay buffer ten-fold higher than the final concentration, and 5 μL of the dilution was added to a 50 μL reaction so that the highest compound concentration was 100 μM FAC and the concentration of DMSO was 1% in all wells. The plates were read on a Tecan Infinite M1000 microplate reader with excitation 340 nm and emission 460 nm. Data were analyzed in Graph Pad Prism. […] Raw data signals were normalized using 1% DMSO as 0% control and no enzyme as 100% inhibitor control.

[2] = target: T2, human dipeptidylpeptidase 8 (hDPP8) (Homo sapiens, UniProt Q6V1X1); assay: hDPP8 inhibition assay; type: biochemical; details: hDPP8 1.5 nM, Ala-Pro-amino-methylcoumarin 5 μM; n = 1
T2 construct: purchased BPS Bioscience 80080
T2 sequence (Q6V1X1 whole entry): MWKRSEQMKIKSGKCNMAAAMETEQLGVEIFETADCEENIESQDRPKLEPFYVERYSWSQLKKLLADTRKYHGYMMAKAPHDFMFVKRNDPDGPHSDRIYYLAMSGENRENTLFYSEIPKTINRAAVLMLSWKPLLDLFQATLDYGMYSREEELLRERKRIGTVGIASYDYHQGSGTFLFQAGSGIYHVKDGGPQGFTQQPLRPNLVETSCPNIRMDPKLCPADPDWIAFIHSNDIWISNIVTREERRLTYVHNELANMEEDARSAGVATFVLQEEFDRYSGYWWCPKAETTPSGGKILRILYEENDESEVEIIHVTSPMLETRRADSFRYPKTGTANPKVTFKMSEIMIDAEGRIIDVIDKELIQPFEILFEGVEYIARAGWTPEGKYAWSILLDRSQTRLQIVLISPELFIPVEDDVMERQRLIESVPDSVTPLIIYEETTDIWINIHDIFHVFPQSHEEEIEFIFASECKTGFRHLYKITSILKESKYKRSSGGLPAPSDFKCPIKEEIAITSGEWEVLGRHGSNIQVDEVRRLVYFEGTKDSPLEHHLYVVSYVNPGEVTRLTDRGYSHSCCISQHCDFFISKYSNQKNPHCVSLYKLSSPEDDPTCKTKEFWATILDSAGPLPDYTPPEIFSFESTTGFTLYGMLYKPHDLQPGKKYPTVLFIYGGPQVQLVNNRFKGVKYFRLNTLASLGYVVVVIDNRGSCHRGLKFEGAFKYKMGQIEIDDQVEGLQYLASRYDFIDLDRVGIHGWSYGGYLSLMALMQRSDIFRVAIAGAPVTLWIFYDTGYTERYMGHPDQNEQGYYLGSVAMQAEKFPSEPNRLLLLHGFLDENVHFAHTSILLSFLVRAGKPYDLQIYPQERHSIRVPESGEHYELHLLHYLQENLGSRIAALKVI
Procedure: Compounds were tested in a biochemical inhibition assay using human dipeptidylpeptidase 8 (hDPP8) enzyme at 1.5 nM FAC (BPS Bioscience, #80080) and the substrate Ala-Pro-amino-methylcoumarin (BPS Bioscience #80305) at 5 μM FAC. The enzymatic reactions were conducted in duplicate at rt for 30 min in 50 μL DPP assay buffer (BPS Bioscience, #80300). Compound solutions (in DMSO) at 10 CR, 3 fold dilution series were prepared in assay buffer ten-fold higher than the final concentration, and 5 μL of the dilution was added to a 50 μL reaction so that the highest compound concentration was 100 μM FAC and the concentration of DMSO was 1% in all wells. The plates were read on a Tecan Infinite M1000 microplate reader with excitation 340 nm and emission 460 nm. Data were analyzed in Graph Pad Prism. […] Raw data signals were normalized using 1% DMSO as 0% control and no enzyme as 100% inhibitor control.

Kinetic solubility = type: physicochemical; details: kinetic from dmso stock, n = 1 or average (n = 2-4)
Procedure: Kinetic solubility was measured as described in Comput Aided Mol Des 2015, 29, 795.

[3] = Metabolic stability in human liver microsomes (HLM); type: in vitro ADME; details: n = 1 or average (n = 2-3)
Procedure: Metabolic stability in HLM was measured as described in J Comput Aided Mol Des 2015, 29, 795.

SMILES	pIC50 [1]	pIC50 [2]	solubility (Kinetic solubility)	microsomal CLint [3]
CC(C)(F)COc1ccc2nccc(C(=O)NCC(=O)N3CSC[C@H]3C#N)c2c1 [Example 3, (R)—N-(2-(4-Cyanothiazolidin-3-yl)-2-oxoethyl)-6-(2-fluoro-2-methylpropoxy)quinoline-4-carboxamide]	< 4.00	5.19		
COC(C)(C)c1ccc2nccc(C(=O)NCC(=O)N3CSC[C@H]3C#N)c2c1 [Example 18, (R)—N-(2-(4-Cyanothiazolidin-3-yl)-2-oxoethyl)-6-(2-methoxypropan-2-yl)quinoline-4-carboxamide]			> 1000 µM	69 µL/min/mg
